Structures can show the parent of a compound that is named as a salt. Where two headings read alike, the source gives them in different places. Starred links: 1 amine or outer side, 2 acyl side, 3 side chain; linkers in the order of their positions; H or OH if unused. Positions of bridges follow the written chain, without caps; N, C: chain ends. Non-standard residues stand in square brackets, D forms with d. Residues, ends and D or L forms follow the SMILES beside them. *: point of attachment. X1 = NC1=N[C@@H]([C@H](N[*:1])C(=O)[*:2])C[C@H](O)N1; ΔAla(Z-3-ureido) = NC(=O)N/C=C(\N)C(=O)O; β3hOrn = NCCC[C@H](N)CC(=O)*; Dap = NC[C@H](N)C(=O)O
How the values were obtained:
human NTCP [1] = molecular target: T1, human NTCP (Homo sapiens, UniProt Q14973); test: Screening fluorescent competitive Myrcludex B-FITC binding assay (96-well, 10 µM drug)
T1 sequence (Q14973 1-349): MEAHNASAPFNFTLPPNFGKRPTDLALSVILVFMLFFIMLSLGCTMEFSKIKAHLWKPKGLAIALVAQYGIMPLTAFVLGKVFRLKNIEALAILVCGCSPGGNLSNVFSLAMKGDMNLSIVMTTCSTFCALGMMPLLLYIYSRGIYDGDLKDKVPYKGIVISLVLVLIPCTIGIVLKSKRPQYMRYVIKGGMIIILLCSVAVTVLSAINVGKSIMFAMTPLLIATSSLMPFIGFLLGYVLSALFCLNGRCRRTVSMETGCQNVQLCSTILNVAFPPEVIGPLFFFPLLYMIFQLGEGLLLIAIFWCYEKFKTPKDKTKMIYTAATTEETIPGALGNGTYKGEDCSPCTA

human NTCP [2] = molecular target: T1, human NTCP; test: Screening taurocholate uptake assay (96-well, [14C]taurocholate, 10 µM drug)
[3] = Prestwick library screen, Myrcludex B-FITC binding, 10 µM drug
[4] = Prestwick library screen, taurocholate uptake, 10 µM drug
[5] = ranking score beside the functional and binding assay B-scores of the screen
[6] = screen, 10 µM drug, Myrcludex B-FITC binding
[7] = combined ranking from functional and binding screening assays
[8] = screen, 10 µM drug, taurocholate uptake
[9] = Prestwick library screen, 10 µM drug, B-score of Myrcludex B-FITC binding
[10] = Prestwick library screen, 10 µM drug, B-score of taurocholate uptake
[11] = combined ranking from functional and binding assay B-scores

CC[C@]12CCCN3CCc4c(n(c5ccccc45)[C@@](O)(C(=O)OC)C1)[C@@H]32 [Vincamine]
B-score binding assay (human NTCP [1]; [3]): 0.616
B-score functional assay (human NTCP [2]; [4]): -0.257
Ranking score (human NTCP [2]; [5]): 659.7

CCOC(=O)C1=C[C@]2(CC)CCCN3CCc4c(n1c1ccccc41)[C@@H]32 [Vinpocetine]
B-score binding assay (human NTCP [1]; [6]): -1.57
Ranking score (human NTCP [2]; [7]): 428.448
B-score functional assay (human NTCP [2]; [8]): 2.672

NCCC[C@H](N)CC(=O)N[C@H]1CNC(=O)[C@H]([C@H]2C[C@H](O)NC(N)=N2)NC(=O)/C(=C/NC(N)=O)NC(=O)[C@H](CO)NC(=O)[C@H](CO)NC1=O.O=S(=O)(O)O [Viomycin sulfate] (β3hOrn-[Dap]SS[ΔAla(Z-3-ureido)][X1]; lactam 1-C)
B-score binding assay (human NTCP [1]; [9]): 0.234
B-score functional assay (human NTCP [2]; [10]): 0.436
Ranking score (human NTCP [2]; [11]): 846.67

C[C@@H](c1ncncc1F)[C@](O)(Cn1cncn1)c1ccc(F)cc1F [Voriconazole]
B-score binding assay (human NTCP [1]; [6]): -0.464
Ranking score (human NTCP [2]; [7]): 370.988
B-score functional assay (human NTCP [2]; [8]): -0.582

CC(=O)CC(c1ccccc1)c1c(O)c2ccccc2oc1=O (stereo not drawn) [Warfarin]
B-score binding assay (human NTCP [1]; [6]): 0.123
Ranking score (human NTCP [2]; [7]): 391.491
B-score functional assay (human NTCP [2]; [8]): -1.345

O=C(NCCNCC(O)COc1ccc(O)cc1)N1CCOCC1 (stereo not drawn) [Xamoterol hemifumarate]
B-score binding assay (human NTCP [1]): -0.721
B-score functional assay (human NTCP [2]): 0.875
Ranking score (human NTCP [2]): 564.879

Cc1cccc(C)c1N=C1NCCCS1 [Xylazine]
B-score binding assay (human NTCP [1]): -0.164
B-score functional assay (human NTCP [2]): -0.697
Ranking score (human NTCP [2]): 404.611

Cc1cc(C(C)(C)C)cc(C)c1CC1=NCCN1 [Xylometazoline hydrochloride]
B-score binding assay (human NTCP [1]; [6]): -1.17
Ranking score (human NTCP [2]; [7]): 287.23
B-score functional assay (human NTCP [2]; [8]): -0.462

Nc1ccn([C@H]2CC[C@@H](CO)O2)c(=O)n1 [Zalcitabine]
B-score binding assay (human NTCP [1]; [3]): -0.087
B-score functional assay (human NTCP [2]; [4]): 1.286
Ranking score (human NTCP [2]; [5]): 782.741

COc1cc(-c2ccc(=O)[nH]n2)ccc1OC(F)F [Zardaverine]
B-score binding assay (human NTCP [1]; [6]): 0.49
Ranking score (human NTCP [2]; [7]): 379.335
B-score functional assay (human NTCP [2]; [8]): -1.701

Cc1cn([C@H]2C[C@H](N=[N+]=[N-])[C@@H](CO)O2)c(=O)[nH]c1=O [Zidovudine, AZT]
B-score binding assay (human NTCP [1]; [9]): 0.429
B-score functional assay (human NTCP [2]; [10]): 1.119
Ranking score (human NTCP [2]; [11]): 985.737

CC(c1cc2ccccc2s1)N(O)C(N)=O (stereo not drawn) [Zileuton]
B-score binding assay (human NTCP [1]; [3]): 1.294
B-score functional assay (human NTCP [2]; [4]): -0.271
Ranking score (human NTCP [2]; [5]): 706.817

O=C1Cc2cc(CCN3CCN(c4nsc5ccccc45)CC3)c(Cl)cc2N1 [Ziprasidone Hydrochloride]
B-score binding assay (human NTCP [1]; [6]): -0.675
Ranking score (human NTCP [2]; [7]): 382.094
B-score functional assay (human NTCP [2]; [8]): -0.279

O=P(O)(O)C(O)(Cn1ccnc1)P(=O)(O)O [Zoledronic acid hydrate]
B-score binding assay (human NTCP [1]; [6]): -0.262
Ranking score (human NTCP [2]; [7]): 422.203
B-score functional assay (human NTCP [2]; [8]): -0.476

NS(=O)(=O)Cc1noc2ccccc12 [Zonisamide]
B-score binding assay (human NTCP [1]; [9]): 0.365
B-score functional assay (human NTCP [2]; [10]): 3.016
Ranking score (human NTCP [2]; [11]): 1038.21

CN(C)CCOC1=Cc2ccccc2Sc2ccc(Cl)cc21 [Zotepine]
B-score binding assay (human NTCP [1]; [9]): 1.26
B-score functional assay (human NTCP [2]; [10]): 0.249
Ranking score (human NTCP [2]; [11]): 950.167

(-) -Levobunolol hydrochloride
B-score binding assay (human NTCP [1]; [9]): 1.256
B-score functional assay (human NTCP [2]; [10]): 0.733
Ranking score (human NTCP [2]; [11]): 1039.8

Bacitracin
B-score binding assay (human NTCP [1]; [9]): 0.785
B-score functional assay (human NTCP [2]; [10]): 1.013
Ranking score (human NTCP [2]; [11]): 1026.66

Cyanocobalamin
B-score binding assay (human NTCP [1]; [3]): 0.087
B-score functional assay (human NTCP [2]; [4]): 0.223
Ranking score (human NTCP [2]; [5]): 774.968

Deoxycorticosterone
B-score binding assay (human NTCP [1]; [6]): -0.204
Ranking score (human NTCP [2]; [7]): 460.68
B-score functional assay (human NTCP [2]; [8]): -0.349

Eburnamonine (-)
B-score binding assay (human NTCP [1]; [6]): -0.173
Ranking score (human NTCP [2]; [7]): 349.983
B-score functional assay (human NTCP [2]; [8]): -1.058

Norgestrel-(-)-D
B-score binding assay (human NTCP [1]; [3]): 0.069
B-score functional assay (human NTCP [2]; [4]): 0.036
Ranking score (human NTCP [2]; [5]): 704.84

Reference: article PMC5681660, “Reduced hepatitis B and D viral entry using clinically applied drugs as novel inhibitors of the bile acid transporter NTCP” (Scientific Reports, 2017)
